This note sets out measurements from paper PMC4979471 (Cell Death Discovery, 2015).

Common to all, as to assay: Kinase selectivity, P33-radiolabeled assay
What all share (format): biochemical
Conditions in all cases: 10 μM ATP

In one experiment the target is T1, DYRK3 (Homo sapiens, UniProt O43781).
T1 construct: purchased Reaction Biology Corp
T1 sequence (O43781 1-588): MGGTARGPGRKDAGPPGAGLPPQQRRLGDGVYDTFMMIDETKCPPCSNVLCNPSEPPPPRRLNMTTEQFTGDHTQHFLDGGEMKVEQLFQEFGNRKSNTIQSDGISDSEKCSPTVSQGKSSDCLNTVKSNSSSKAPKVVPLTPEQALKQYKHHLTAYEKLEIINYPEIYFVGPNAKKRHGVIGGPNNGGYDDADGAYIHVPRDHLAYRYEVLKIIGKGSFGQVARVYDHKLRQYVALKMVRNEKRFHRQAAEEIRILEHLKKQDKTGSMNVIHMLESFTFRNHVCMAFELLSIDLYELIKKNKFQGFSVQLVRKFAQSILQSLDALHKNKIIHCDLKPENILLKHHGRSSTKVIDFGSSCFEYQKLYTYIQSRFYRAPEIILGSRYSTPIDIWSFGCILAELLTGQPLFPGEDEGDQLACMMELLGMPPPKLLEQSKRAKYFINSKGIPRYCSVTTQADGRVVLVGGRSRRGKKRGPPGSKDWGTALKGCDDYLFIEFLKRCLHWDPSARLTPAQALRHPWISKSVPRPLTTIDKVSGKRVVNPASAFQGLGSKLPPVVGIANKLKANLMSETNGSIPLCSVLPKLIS
The method, boiled down:
(§1)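 Reactions contained 10 μM ATP and 10 μM test compound, each run in duplicate. Kinase activity is expressed as a percentage of DMSO-treated controls.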

For the next experiment, the target named is T2, EPHA6 (Homo sapiens, UniProt Q9UF33).
T2 construct: purchased Reaction Biology Corp
T2 sequence (Q9UF33 23-1036): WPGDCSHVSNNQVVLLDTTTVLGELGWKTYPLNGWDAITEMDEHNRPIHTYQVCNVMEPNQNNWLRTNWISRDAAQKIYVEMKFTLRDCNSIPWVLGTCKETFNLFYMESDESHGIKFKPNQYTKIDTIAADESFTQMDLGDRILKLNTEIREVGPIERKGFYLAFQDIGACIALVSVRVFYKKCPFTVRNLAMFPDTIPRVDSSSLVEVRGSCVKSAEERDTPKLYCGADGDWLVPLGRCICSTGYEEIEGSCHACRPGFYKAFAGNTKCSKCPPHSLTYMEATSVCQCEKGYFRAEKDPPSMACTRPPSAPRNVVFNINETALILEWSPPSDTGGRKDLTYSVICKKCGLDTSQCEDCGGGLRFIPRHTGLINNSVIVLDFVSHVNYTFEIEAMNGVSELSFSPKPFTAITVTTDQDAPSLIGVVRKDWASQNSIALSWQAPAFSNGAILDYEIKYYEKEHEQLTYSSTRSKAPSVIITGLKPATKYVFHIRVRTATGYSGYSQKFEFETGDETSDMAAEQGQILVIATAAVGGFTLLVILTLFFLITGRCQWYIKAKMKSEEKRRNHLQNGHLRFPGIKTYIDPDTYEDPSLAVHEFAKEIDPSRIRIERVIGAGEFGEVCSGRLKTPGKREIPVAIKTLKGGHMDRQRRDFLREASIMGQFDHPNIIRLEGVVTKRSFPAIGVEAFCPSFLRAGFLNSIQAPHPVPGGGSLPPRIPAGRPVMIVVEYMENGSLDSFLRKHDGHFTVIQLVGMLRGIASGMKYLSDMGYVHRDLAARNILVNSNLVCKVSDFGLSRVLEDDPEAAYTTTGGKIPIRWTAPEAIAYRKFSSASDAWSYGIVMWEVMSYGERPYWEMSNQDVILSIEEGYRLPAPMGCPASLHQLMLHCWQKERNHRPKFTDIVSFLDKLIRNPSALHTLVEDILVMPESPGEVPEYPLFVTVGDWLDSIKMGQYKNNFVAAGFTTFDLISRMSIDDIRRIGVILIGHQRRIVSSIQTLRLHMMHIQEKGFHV
The method, boiled down:
as §1

Another experiment deals with T3, FMS (Homo sapiens, UniProt P07333).
T3 construct: purchased Reaction Biology Corp
The gist of the method: as §1

Another experiment has as its target T4, MARK2/PAR-1Ba (Homo sapiens, UniProt Q7KZI7).
T4 construct: purchased Reaction Biology Corp
The gist of the method:
as §1

A further experiment addresses T5, PAK1 (Homo sapiens, UniProt Q13153).
T5 construct: purchased Reaction Biology Corp
The gist of the method:
as §1

For the next experiment, the target named is T6, TSSK3/STK22C (Homo sapiens, UniProt Q96PN8).
T6 construct: purchased Reaction Biology Corp
T6 sequence (Q96PN8 1-268): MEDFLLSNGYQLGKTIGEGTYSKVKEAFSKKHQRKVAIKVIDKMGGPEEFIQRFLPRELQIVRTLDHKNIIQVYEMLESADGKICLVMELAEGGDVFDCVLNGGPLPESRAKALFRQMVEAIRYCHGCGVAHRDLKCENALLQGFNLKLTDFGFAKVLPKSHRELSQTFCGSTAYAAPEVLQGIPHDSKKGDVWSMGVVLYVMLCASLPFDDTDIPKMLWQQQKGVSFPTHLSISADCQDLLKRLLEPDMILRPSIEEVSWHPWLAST
The gist of the method:
as §1

The mark [1] stands for this setting: read-out: % Enzyme Activity (relative to DMSO controls) AVG.
[2] abbreviates: read-out: % Enzyme Activity (relative to DMSO controls) Data 1.
[3] abbreviates: read-out: % Enzyme Activity (relative to DMSO controls) Data 2.

Where two headings read alike, the source gives them in different places.

T4 sequence (Q7KZI7 whole entry): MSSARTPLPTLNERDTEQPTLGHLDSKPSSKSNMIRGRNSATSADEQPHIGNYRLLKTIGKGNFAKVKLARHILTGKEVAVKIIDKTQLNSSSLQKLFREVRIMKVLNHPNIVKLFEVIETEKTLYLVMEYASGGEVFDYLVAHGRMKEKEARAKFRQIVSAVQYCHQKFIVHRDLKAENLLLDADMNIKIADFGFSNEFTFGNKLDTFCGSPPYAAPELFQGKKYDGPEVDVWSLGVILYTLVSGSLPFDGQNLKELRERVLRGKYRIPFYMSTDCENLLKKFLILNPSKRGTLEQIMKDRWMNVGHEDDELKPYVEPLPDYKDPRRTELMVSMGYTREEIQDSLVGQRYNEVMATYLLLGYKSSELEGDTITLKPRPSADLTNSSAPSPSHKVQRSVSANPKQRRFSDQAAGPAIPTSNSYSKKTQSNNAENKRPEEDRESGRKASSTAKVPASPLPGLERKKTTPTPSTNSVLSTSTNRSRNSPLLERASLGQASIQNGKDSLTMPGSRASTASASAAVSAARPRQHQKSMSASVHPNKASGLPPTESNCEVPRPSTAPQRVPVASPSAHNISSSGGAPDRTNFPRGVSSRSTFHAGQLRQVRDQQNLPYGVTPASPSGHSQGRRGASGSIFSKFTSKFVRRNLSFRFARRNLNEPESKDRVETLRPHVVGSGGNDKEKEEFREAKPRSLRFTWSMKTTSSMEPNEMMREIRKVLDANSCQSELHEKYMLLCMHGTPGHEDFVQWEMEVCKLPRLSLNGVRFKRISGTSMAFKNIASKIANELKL
T3 sequence (P07333 20-972): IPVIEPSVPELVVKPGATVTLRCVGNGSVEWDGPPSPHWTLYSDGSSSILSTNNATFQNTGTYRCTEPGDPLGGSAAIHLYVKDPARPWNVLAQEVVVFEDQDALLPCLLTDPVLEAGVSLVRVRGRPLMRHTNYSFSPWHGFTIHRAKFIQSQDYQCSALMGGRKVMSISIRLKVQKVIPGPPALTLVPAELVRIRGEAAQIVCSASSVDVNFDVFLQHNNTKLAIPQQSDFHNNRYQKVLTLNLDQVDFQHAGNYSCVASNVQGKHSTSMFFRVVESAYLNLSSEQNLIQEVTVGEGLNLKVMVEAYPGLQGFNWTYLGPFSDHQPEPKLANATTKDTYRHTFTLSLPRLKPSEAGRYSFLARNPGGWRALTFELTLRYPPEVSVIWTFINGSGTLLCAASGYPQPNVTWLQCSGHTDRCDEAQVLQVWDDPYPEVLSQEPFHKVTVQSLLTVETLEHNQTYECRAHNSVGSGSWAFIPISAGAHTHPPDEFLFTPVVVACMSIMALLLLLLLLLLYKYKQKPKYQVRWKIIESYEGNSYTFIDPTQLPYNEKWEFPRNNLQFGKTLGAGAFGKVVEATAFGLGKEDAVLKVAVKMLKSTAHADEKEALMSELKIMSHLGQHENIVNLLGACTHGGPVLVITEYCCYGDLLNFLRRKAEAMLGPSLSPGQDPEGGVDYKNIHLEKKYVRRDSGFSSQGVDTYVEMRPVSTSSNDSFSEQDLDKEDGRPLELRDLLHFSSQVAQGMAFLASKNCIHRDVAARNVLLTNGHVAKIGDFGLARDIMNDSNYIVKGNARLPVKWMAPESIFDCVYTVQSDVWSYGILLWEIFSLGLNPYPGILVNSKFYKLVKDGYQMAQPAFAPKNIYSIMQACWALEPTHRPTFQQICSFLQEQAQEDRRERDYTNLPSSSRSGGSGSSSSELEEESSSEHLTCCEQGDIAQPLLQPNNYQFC
T5 sequence (Q13153 whole entry): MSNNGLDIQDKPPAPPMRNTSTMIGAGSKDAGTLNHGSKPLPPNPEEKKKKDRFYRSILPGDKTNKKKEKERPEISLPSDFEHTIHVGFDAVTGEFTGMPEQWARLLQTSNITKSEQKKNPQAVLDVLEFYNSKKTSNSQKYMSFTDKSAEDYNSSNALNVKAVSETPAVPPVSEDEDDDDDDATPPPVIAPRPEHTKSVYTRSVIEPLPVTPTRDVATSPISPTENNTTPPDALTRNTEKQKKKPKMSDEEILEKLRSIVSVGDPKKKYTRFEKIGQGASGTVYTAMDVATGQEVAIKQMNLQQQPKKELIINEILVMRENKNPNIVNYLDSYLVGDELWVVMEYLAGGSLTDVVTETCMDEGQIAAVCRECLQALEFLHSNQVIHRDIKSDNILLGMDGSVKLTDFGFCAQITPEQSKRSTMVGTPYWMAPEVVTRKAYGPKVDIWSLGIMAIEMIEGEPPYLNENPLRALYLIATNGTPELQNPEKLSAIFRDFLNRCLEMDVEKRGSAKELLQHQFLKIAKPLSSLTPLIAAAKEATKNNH

Consider `CC(C)(C)C(=O)N1N=CC[C@H]1c1ccccc1` [GSK′963], for which the remaining activity at 10 µM at DYRK3 (setting [1]) was 115%; on DYRK3 (setting [2]) it was 113%; at DYRK3 (setting [3]), 116%; at EPHA6 (setting [1]), 99.3%; on EPHA6 (setting [2]) it was 101%; on EPHA6 (setting [3]), 97.5%. Besides, the remaining activity at 10 µM at FMS (setting [1]) was 95%; at FMS (setting [2]) it was 97.2%; at FMS (setting [3]), 92.8%; on MARK2/PAR-1Ba (setting [1]), 105%; at MARK2/PAR-1Ba (setting [2]) it was 106%; at MARK2/PAR-1Ba (setting [3]), 104%. The remaining activity at 10 µM at PAK1 (setting [1]) is 92.8%; at PAK1 (setting [2]), 92.5%; at PAK1 (setting [3]), 93%; on TSSK3/STK22C (setting [1]) it was 131%; on TSSK3/STK22C (setting [2]) it was 129%; at TSSK3/STK22C (setting [3]) it was 133%.
